Where a name gives a salt, the structure may show the parent alone.
Structure (SMILES) | melting point [°C]
CNCc1cc(-c2ccco2)ccc1Oc1ccc(Cl)c(Cl)c1 (as salt: HCl) (hydrate or solvate) [Example 6, [2-(3,4-Dichlorophenoxy)-5-furan-2-ylbenzyl]-methylamine] | 188 to 191
CNCc1cc(-c2cccnc2)ccc1Oc1ccc(Cl)c(Cl)c1 (as salt: HCl) [Example 13, [2-(3,4-Dichlorophenoxy)-5-pyridin-3-ylbenzyl]-methylamine] | 168 to 171
CNCc1cc(-n2ccc(N)n2)ccc1Oc1ccc(Cl)c(Cl)c1.Cl.Cl | 225 to 233
CNCc1ccc(-c2ccco2)cc1Oc1ccc(Cl)c(Cl)c1 (hydrate or solvate) [Example 7, [2-(3,4-Dichlorophenoxy)-4-furan-2-ylbenzyl]-methylamine] | 129 to 134
CNCc1cc(-c2ccc(C)cc2)ccc1Oc1ccc(Cl)c(Cl)c1 (as salt: HCl) (hydrate or solvate) [Example 3, [4-(3,4-Dichlorophenoxy)-4′-methyl-biphenyl-3-ylmethyl]-methylamine] | 208 to 210
CNCc1ccc(-c2ccccc2)cc1Oc1ccc(Cl)c(Cl)c1 (as salt: HCl) [Example 2, [3-(3,4-Dichlorophenoxy)-biphenyl-4-ylmethyl]-methylamine] | 186 to 194
CNC(C)c1cc(N2CCCC2=O)ccc1Oc1ccc(Cl)c(Cl)c1.Cl (stereo not shown) | 195 to 200
CNCc1ccc(-c2cccs2)cc1Oc1ccc(Cl)c(Cl)c1 (as salt: HCl) [Example 11, [2-(3,4-Dichlorophenoxy)-4-thiophen-2-ylbenzyl]-methylamine] | 180 to 183
CNCc1cc(-c2cccs2)ccc1Oc1ccc(Cl)c(Cl)c1 (as salt: HCl) [Example 10, [2-(3,4-Dichlorophenoxy)-5-thiophen-2-ylbenzyl]-methylamine] | 207 to 209
CNCc1cc(N2CCCC2=O)ccc1Oc1ccc(Cl)c(Cl)c1 (as salt: HCl) [Example 19, 1-[4-(3,4-Dichlorophenoxy)-3-(methylaminomethyl)phenyl]-pyrrolidin-2-one] | 166 to 170
CNCc1cc(-c2ccncc2)ccc1Oc1ccc(Cl)c(Cl)c1 (as salt: HCl) (hydrate or solvate) [Example 14, [2-(3,4-Dichlorophenoxy)-5-pyridin-4-ylbenzyl]-methylamine] | 179 to 181
CNCc1ccc(-c2ccsc2)cc1Oc1ccc(Cl)c(Cl)c1 (as salt: HCl) (hydrate or solvate) [Example 9, [2-(3,4-Dichlorophenoxy)-4-thiophen-3-ylbenzyl]-methylamine] | 181 to 184
CNCc1cc(-c2ccsc2)ccc1Oc1ccc(Cl)c(Cl)c1 (as salt: HCl) [Example 8, [2-(3,4-Dichlorophenoxy)-5-thiophen-3-ylbenzyl]-methylamine] | 169 to 172

— US6596741B2, “Biaryl ether derivatives useful as monoamine reuptake inhibitors” (Pfizer Inc, priority 1999, dated 2003)
